Reference: US12492196B2, “Thienyloxazolones and analogues” (Bayer Aktiengesellschaft, priority 2019, dated 2025)
Marks after values point to notes of the source that are not given here.

Experiments:
[1] = tested on: Colletotrichum lindemuthianum; assay: In vivo preventive test on Colletotrichum lindemuthianum (Antrachnose on bean); conditions: for pest or weed control at 31 ppm / pest or weed control at 500 ppm: Colletotrichum lindemuthianum, 144 h, bean, evaluated 6 days after inoculation, read-out: efficacy; for pest or weed control at 31 ppm: 31 ppm of active ingredient; for pest or weed control at 500 ppm: 500 ppm of active ingredient
Method: The tested active ingredients were prepared by homogenization in a mixture of acetone/Dimethyl sulfoxide/Tween®, and then diluted with water to obtain the desired active material concentration. The young plants of bean were treated by spraying the active ingredient prepared as described above. Control plants were treated only with an aqueous solution of acetone/Dimethyl sulfoxide/Tween®.
After 72 hours, the plants were contaminated by spraying the leaves with an aqueous suspension of Colletotrichum lindemuthianum spores. The contaminated bean plants were incubated for 24 hours at 20° C. and at 100% relative humidity and then for 5 days at 20° C. and at 90% relative humidity.
The test was evaluated 6 days after the inoculation. 0% means an efficacy which corresponds to that of the control plants while an efficacy of 100% means that no disease was observed.
Compound CMP1 was tested in an in vivo preventive test on Colletotrichum lindemuthianum (Antrachnose on bean) in the same conditions as described in Example D.

[2] = tested on: Colletotrichum lindemuthianum; assay: Colletotrichum lindemuthianum in vitro cell test; assay type: cell-based; conditions: 144 h, 20 ppm of active ingredient, 6 days incubation, read-out: efficacy (direct activity, inhibition of fungal growth)
Method: Solvent: DMSO Culture medium: 14.6 g anhydrous D-glucose (VWR), 7.1 g Mycological Peptone (Oxoid), 1.4 g granulated Yeast Extract (Merck), QSP 1 liter Inoculum: spores suspension Fungicides were solubilized in DMSO and the solution used to prepare the required range of concentrations. The final concentration of DMSO used in the assay was ≤1%. A spore suspension of C. lindemuthianum was prepared and diluted to the desired spore density. Fungicides were evaluated for their ability to inhibit spores germination and mycelium growth in liquid culture assay. The compounds were added in the desired concentration to the culture medium with spores. After 6 days incubation, fungi-toxicity of compounds was determined by spectrometric measurement of mycelium growth. Inhibition of fungal growth was determined by comparing the absorbance values in wells containing the fungicides with the absorbance in control wells without fungicides.

[3] = tested on: Xanthomonas campestris pv. campestris; assay: Xanthomonas campestris pv. campestris in vitro cell test; assay type: cell-based; conditions: 20 ppm of active ingredient, 24 h incubation, read-out: efficacy (direct activity, inhibition of bacteria growth)
Method: Solvent: DMSO Culture medium: LB broth medium (Luria Broth Miller) Sigma Inoculum: bacteria suspension Compounds were solubilized in DMSO and the solution used to prepare the required range of concentrations. The final concentration of DMSO used in the assay was ≤1%. Inoculum was prepared from a pre-culture of bacteria grown in liquid medium and diluted to the desired optical density (OD). Compounds were evaluated for their ability to inhibit bacteria growth in liquid culture assay. The compounds were added in the desired concentrations to culture medium containing the bacteria suspension. After 24 h of incubation, the efficacy of compounds was determined by spectrometric measurement of bacteria growth. Inhibition was determined by comparing the absorbance values in wells containing the compounds with the absorbance in control wells without active ingredients.

[4] = tested on: salicylate responsive promoter sequence of the PR1 (pathogenesis-related protein I) gene (AT2G14610); assay: Induction of defense gene expression in Arabidopsis thaliana (PR1 promoter-GFP reporter plants); assay type: in vivo; conditions: 72 h, 3rd day after spraying, mock treated leaves set as 1.00, read-out: relative fluorescence value; for fold induction at 75 ppm: 75 ppm of compound
Method: Arabidopsis thaliana reporter plants containing the coding sequence of a green fluorescent protein (GFP) linked to the salicylate responsive promoter sequence of the PR1 (pathogenesis-related protein I) gene (AT2G14610) were grown for five days and then sprayed with compounds. On the 3rd day after spraying, plant fluorescence was assessed with a MacroFluo instrument from Leica Microsystems (Wetzlar, Germany). Fluorescences were quantified with the Meta-Morph Microscopy Automation & Image Analysis Software (Molecular Devices, Sunnyvale, Calif., United States).
Background fluorescence in mock treated leaves was set as 1.00.

Uromyces appendiculatus = assay: In vivo preventive test on Uromyces appendiculatus (bean rust); conditions: for pest or weed control at 31 ppm / pest or weed control at 125 ppm / pest or weed control at 500 ppm: Uromyces appendiculatus, 240 h, bean, evaluated 10 days after inoculation, read-out: efficacy; for pest or weed control at 31 ppm: 31 ppm of active ingredient; for pest or weed control at 125 ppm: 125 ppm of active ingredient; for pest or weed control at 500 ppm: 500 ppm of active ingredient
Method: (§1) The tested active ingredients were prepared by homogenization in a mixture of acetone/Dimethyl sulfoxide/Tween®, and then diluted with water to obtain the desired active material concentration.
The young plants of bean were treated by spraying the active ingredient prepared as described above.
Control plants were treated only with an aqueous solution of acetone/Dimethyl sulfoxide/Tween®.
After 72 hours, the plants were contaminated by spraying the leaves with an aqueous suspension of Uromyces appendiculatus spores. The contaminated bean plants were incubated for 24 hours at 20° C. and at 100% relative humidity and then for 9 days at 20° C. and at 70-80% relative humidity.
The test was evaluated 10 days after the inoculation. 0% means an efficacy which corresponds to that of the control plants while an efficacy of 100% means that no disease was observed.
Compound CMP1 was tested in an in vivo preventive test on Uromyces appendiculatus (bean rust) in the same conditions as described in Example G.

[5] = tested on: Xanthomonas campestris pv. campestris; assay: In vivo preventive test on Xanthomonas campestris pv. campestris (black rot on cabbage); conditions: for pest or weed control at 31 ppm / pest or weed control at 125 ppm: Xanthomonas campestris, cabbage, evaluated 8 or 10 days after inoculation, read-out: efficacy; for pest or weed control at 31 ppm: 31 ppm of active ingredient; for pest or weed control at 125 ppm: 125 ppm of active ingredient
Method: as §1
(§2) The young plants of cabbage were treated by spraying the active ingredient prepared as described above. Control plants were treated only with an aqueous solution of acetone/Dimethyl sulfoxide/Tween®.
After 72 hours, the plants were contaminated by spraying the leaves with an aqueous bacteria suspension of Xanthomonas campestris pv. campestris. The contaminated cabbage plants were incubated for 8 or 10 days at 27° C. at 95% relative humidity.
The test was evaluated 8 or 10 days after the inoculation. 0% means an efficacy which corresponds to that of the control plants while an efficacy of 100% means that no disease was observed.
Compound CMP1 was tested in an in vivo preventive test on Xanthomonas campestris pv. campestris (black rot on cabbage) in the same conditions as described in Example F.

Peronospora parasitica = assay: In vivo preventive test on Peronospora parasitica (crucifer downy mildew); conditions: Hyaloperonospora parasitica, 120 h; 125 ppm of active ingredient; cabbage; evaluated 5 days after inoculation; read-out: efficacy
Method: as §1, §2
After 72 hours, the plants were contaminated by spraying the leaves with an aqueous suspension of Peronospora parasitica spores. The contaminated cabbage plants were incubated for 5 days at 20° C. and at 100% relative humidity.
The test was evaluated 5 days after the inoculation. 0% means an efficacy which corresponds to that of the control plants while an efficacy of 100% means that no disease was observed.

[6] = Log P by HPLC on reversed phase columns (EEC directive 79/831 Annex V.A8); assay type: physicochemical
Method: In the above table, measurement of Log P values was performed according to EEC directive 79/831 Annex V.A8 by HPLC (High Performance Liquid Chromatography) on reversed phase columns with the following methods: • [^a] Log P value is determined by measurement of LC-UV, in an acidic range, with 0.1% formic acid in water and acetonitrile as eluent (linear gradient from 10% acetonitrile to 95% acetonitrile). • [^b] Log P value is determined by measurement of LC-UV, in a neutral range, with 0.001 molar ammonium acetate solution in water and acetonitrile as eluent (linear gradient from 10% acetonitrile to 95% acetonitrile). • [^c] Log P value is determined by measurement of LC-UV, in an acidic range, with 0.1% phosphoric acid and acetonitrile as eluent (linear gradient from 10% acetonitrile to 95% acetonitrile).
If more than one Log P value is available within the same method, all the values are given and separated by “+”.
Calibration was done with straight-chain alkan2-ones (with 3 to 16 carbon atoms) with known Log P values (measurement of Log P values using retention times with linear interpolation between successive alkanones). Lambda-max-values were determined using UV-spectra from 200 nm to 400 nm and the peak values of the chromatographic signals.

[7] = reversed phase HPLC columns, method [a]: LC-UV, acidic range, 0.1% formic acid in water and acetonitrile as eluent

| SMILES | pest or weed control at 31 ppm [1] | pest or weed control at 500 ppm [1] | inhibition at 20 ppm [2] | inhibition at 20 ppm [3] | fold induction at 75 ppm [4] | fold induction at 300 ppm [4] | pest or weed control at 31 ppm (Uromyces appendiculatus) | pest or weed control at 125 ppm (Uromyces appendiculatus) | pest or weed control at 500 ppm (Uromyces appendiculatus) | pest or weed control at 31 ppm [5] | pest or weed control at 125 ppm (Peronospora parasitica) | chromatographic logP [6, 7] | pest or weed control at 125 ppm [5] | Efficacy (%) at 31 ppm ([1]; 31 ppm, conditions of Example D) | Efficacy (%) at 31 ppm (Uromyces appendiculatus; 31 ppm, arithmetic mean of 3 tests, conditions of Example G) | Efficacy (%) at 125 ppm (Uromyces appendiculatus; 125 ppm, arithmetic mean of 3 tests, conditions of Example G) | Efficacy (%) at 31 ppm ([5]; 31 ppm, arithmetic mean of 4 tests, conditions of Example F) | Efficacy (%) at 125 ppm ([5]; 125 ppm, arithmetic mean of 4 tests, conditions of Example F) | chromatographic logP ([6]; given in preparation examples, method not marked) |
| --- | --- | --- | --- | --- | --- | --- | --- | --- | --- | --- | --- | --- | --- | --- | --- | --- | --- | --- | --- |
| O=C1OC(c2sc(Cl)c(Br)c2Cl)=NC12CC2 [I.09] | 70 to 79% | 90 to 100% | ≤ 30% | ≤ 30% | > 2 | > 2 | 90 to 100% | 90 to 100% | 90 to 100% | 70 to 79% | 90 to 100% | 4.01 | – | – | – | – | – | – | – |
| O=C1OC(c2sc(Br)c(Br)c2F)=NC12CCC2 [I.13] | – | 90 to 100% | ≤ 30% | ≤ 30% | – | – | – | 90 to 100% | 90 to 100% | 90 to 100% | 90 to 100% | 4.02 | 80 to 89% | – | – | – | – | – | – |
| O=C1OC(c2sc(Cl)c(Cl)c2Br)=NC12CCC2 [I.22] | 80 to 89% | – | ≤ 30% | ≤ 30% | – | – | 90 to 100% | 90 to 100% | – | – | 90 to 100% | 4.55 | – | – | – | – | – | – | – |
| Cc1c(C2=NC3(CC3)C(=O)O2)sc(Br)c1Cl [I.12] | – | 80 to 89% | ≤ 30% | ≤ 30% | – | > 2 | – | 90 to 100% | 90 to 100% | 70 to 79% | 90 to 100% | 4.32 | 90 to 100% | – | – | – | – | – | – |
| O=C1OC(c2sc(Cl)c(Br)c2Br)=NC12CC2 [I.08] | – | 90 to 100% | ≤ 30% | ≤ 30% | > 2 | > 2 | 90 to 100% | 90 to 100% | 90 to 100% | 80 to 89% | 90 to 100% | 4.12 | 70 to 79% | – | – | – | – | – | – |
| O=C1OC(c2sc(Cl)c(Br)c2Cl)=NC12CCC2 [I.25] | 70 to 79% | – | ≤ 30% | ≤ 30% | – | – | 90 to 100% | 90 to 100% | – | – | – | 4.47 | – | – | – | – | – | – | – |
| O=C1OC(c2cc(Br)c(C(F)(F)F)s2)=NC12CC2 [I.26] | – | 70 to 79% | – | – | – | – | – | – | 90 to 100% | 70 to 79% | 90 to 100% | 3.98 | – | – | – | – | – | – | – |
| O=C1OC(c2cc(Br)c(Br)s2)=NC12CC2 [CMP1, reference compound] | < 20% | – | – | – | – | – | < 40% | 42% | – | < 40% | – | – | < 40% | 19% | 32* % | 42* % | 35* % | 37* % | – |
| Cc1c(C2=NC3(CC3)C(=O)O2)sc(C#N)c1Br [I.06, 3-bromo-4-methyl-5-(7-oxo-6-oxa-4-azaspiro[2.4]hept-4-en-5-yl)thiophene-2-carbonitrile] | – | 90 to 100% | ≤ 30% | ≤ 30% | > 2 | > 2 | 70 to 79% | 70 to 79% | 90 to 100% | 90 to 100% | 90 to 100% | – | 90 to 100% | – | – | – | – | – | 3.37 |
| Cc1c(C2=NC3(CC3)C(=O)O2)sc(Cl)c1Br [I.11] | – | 90 to 100% | ≤ 30% | ≤ 30% | > 2 | – | 80 to 89% | 90 to 100% | 90 to 100% | 70 to 79% | 90 to 100% | 4.39 | 90 to 100% | – | – | – | – | – | – |
